For one molecule, IC50 and HA50 results are on record in patent US20110124564A1, “NUCLEOLIN-BINDING PEPTIDES, NUCLEOLIN- BINDING LYTIC PEPTIDES, FUSION CONSTRUCTS AND METHODS OF MAKING AND USING SAME” (ESPERANCE PHARMACEUTICALS, INC., published 2011).

Read-outs that look alike come from different tables or passages of the source. Residues, ends and D or L forms follow the SMILES beside them.

In series [1] the test system is MDA-MB-435S breast cancer cells. The class given is cell-based, human. The conditions noted are these: 24 h. How it is done:
EP-301 and EP-302 were analyzed for anti-cancer activity in vitro in a time course experiment against MDA-MB-435S breast cancer cells. EP-301 and EP-302 were freshly dissolved in saline and added into cancer cell seeded multi-well plates at increasing concentrations of 0, 0.001, 0.01, 0.1, 1, 2, 5, 10 and 100 μM. Incubations were conducted for 0.25, 0.5, 1, 2, 4, 6 h or 24 h at 37° C. Cell viability was determined using formazan conversion assays (MTT assays). Controls were treated with USP saline or 0.1% TritonX-100™ as reference for 0 and 100% cell death, respectively. Cytotoxicity was evaluated as an IC50 value derived for EP-301 and EP-302 at each time point.

Series [2] has the same test system. It counts as cell-based, human. The conditions noted are these: 4 h. On the procedure:
Twelve different fusion constructs were analyzed for anti-cancer activity in vitro against MDA-MB-435S breast cancer cells and for hemolytic activity in vitro to human red blood cells. Fusion constructs of the following sequence were tested:
The peptide conjugates were freshly dissolved in saline and added into cancer cell seeded multi-well plates at increasing concentrations of 0, 0.001, 0.01, 0.1, 1, 2, 5, 10 and 100 μM. Incubations were conducted for 4 h at 37° C. Cell viability was determined using formazan conversion assays (MTT assays). Controls were treated with USP saline or 0.1% TritonX-100™ as reference for 0 and 100% cell death, respectively. Cytotoxicity was evaluated as an IC50 value.

The test system of another series is human red blood cells. Nature of the series: Hemolytic activity. The class given is cell-based. How it is done:
Hemolytic activity was studied by incubating the fusion constructs with human red blood cells at concentrations of 0.01, 0.1, 1, 10 and 50 μM for 2 hours. Saline and 0.1% Triton served as controls.
Hemolytic activity of the compounds was studied by incubating EP-301 and EP-302 with human red blood cells at concentrations of 0.01, 0.1, 1, 10 and 50 μM for 2 hours.

As for `CC(C)C[C@H](NC(=O)[C@H](CCCNC(=N)N)NC(=O)[C@H](C)NC(=O)[C@H](CO)NC(=O)[C@H](CCCNC(=N)N)NC(=O)[C@H](CCCNC(=N)N)NC(=O)[C@H](CCC(N)=O)NC(=O)[C@@H]1CCCN1C(=O)[C@H](CCC(=O)O)NC(=O)[C@H](CC(=O)O)NC(=O)[C@H](CCCCN)NC(=O)[C@H](CCCCN)NC(=O)[C@H](C)NC(=O)[C@H](Cc1ccccc1)NC(=O)[C@H](CCCCN)NC(=O)[C@H](CCCCN)NC(=O)[C@H](C)NC(=O)[C@H](Cc1ccccc1)NC(=O)[C@H](CCCCN)NC(=O)[C@H](C)NC(=O)[C@H](Cc1ccccc1)NC(=O)[C@H](CCCCN)NC(=O)[C@H](CCCCN)NC(=O)[C@H](C)NC(=O)[C@H](Cc1ccccc1)NC(=O)[C@H](CCCCN)NC(=O)[C@H](C)NC(=O)[C@H](Cc1ccccc1)NC(=O)[C@@H](N)CCCCN)C(=O)N[C@@H](CO)C(=O)N[C@@H](C)C(=O)N[C@@H](CCCCN)C(=O)O` [EP-301] (H-KFAKFAKKFAKFAKKFAKKDEPQRRSARLSAK-OH), the results for the IC50 in series [1] and in series [2] were 12 µM and 64.8 µM, respectively. The HA50 entry with human red blood cells is reported as “Not hemolytic”.
